Results reported in patent US4656166A, “Antibiotic compounds derived from cephalosporins, process for their production and pharmaceutical compositions” (Sanofi, priority 1983, dated 1987).
≈ marks a conversion by molar mass, not a printed value. Structures can show the parent of a compound that is named as a salt. Where two headings read alike, the source gives them in different places.

Assays:
Escherichia coli SOL 90 [1] = test: MIC, in vitro dilution method, Escherichia coli SOL 90 (Table III); format: cell-based; conditions: SOL90; Escherichia coli SOL 90; dilution method; read-out: MIC
Procedure, shortened: (§1)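 MIC in μg/ml, taken as the minimum concentration giving bacteriostatic action in an in vitro dilution assay on Gram-negative bacteria.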

Citrobacter RL 49 = test: MIC, in vitro dilution method, Citrobacter RL 49 (Table III); format: cell-based; conditions: RL49
Procedure, shortened: as §1

[2] = tested on: Proteus vulgaris RL 99 bis; test: MIC, in vitro dilution method, Proteus vulgaris RL 99 bis (Table III); format: cell-based; conditions: RL99BIS
Procedure, shortened: as §1

Serratia RL 72 = test: MIC, in vitro dilution method, Serratia RL 72 (Table III); format: cell-based; conditions: RL72
Procedure, shortened: as §1

Klebsiella RO 30 [3] = test: MIC, in vitro dilution method, Klebsiella RO 30 (Table III); format: cell-based; conditions: RO30
Procedure, shortened: as §1

Enterobacter RO 154 = test: MIC, in vitro dilution method, Enterobacter RO 154 (Table III); format: cell-based; conditions: RO154; Enterobacter RO 154; dilution method; read-out: MIC
Procedure, shortened: as §1

Pseudomonas RL 112 = test: MIC, in vitro dilution method, Pseudomonas RL 112 (Table III); format: cell-based; conditions: RL112
Procedure, shortened: as §1

Escherichia coli 255 = test: MIC on beta-lactamase producing strain Escherichia coli 255 (Table IV); format: cell-based
Protocol: (§2) To evaluate the stability of these products towards beta-lactamases, their MIC was determined on isogenic strains producing and not producing beta-lactamases.
(§3) The results are expressed in μg/ml in Table IV.

Escherichia coli 255/L.7 = test: MIC on strain not producing beta-lactamase, Escherichia coli 255/L.7 (Table IV); format: cell-based
Protocol: as §2, §3

[4] = tested on: Serrtia liquefaciens SL/326 A; test: MIC on beta-lactamase producing strain Serratia liquefaciens SL/326 A (Table IV); format: cell-based
Protocol: as §2, §3

[5] = tested on: Serrtia liquefaciens SL 1326 S; test: MIC on strain not producing beta-lactamase, Serratia liquefaciens SL 1326 S (Table IV); format: cell-based; conditions: SL1326S, not producing beta-lactamases
Protocol: as §2, §3

[6] = tested on: Proteus vulgaris GN 76/C.1; test: MIC on beta-lactamase producing strain Proteus vulgaris GN 76/C.1 (Table IV); format: cell-based; conditions: GN76
Protocol: as §2, §3

Escherichia coli SOL 90 [7] = test: septicemic model of the mouse, Escherichia coli SOL 90 (Table V); format: in vivo; conditions: SOL90, sc, 96 h, mouse septicemia, sub-cutaneous, 1 to 5 hours after inoculation, 4 days observation, read-out: DE50 (the source's name)
Protocol: The therapeutic effectiveness of the products was determined on the septicemic model of the mouse. the septicemia was initiated by the intraperitoneal innoculation of 0.5 ml of a suitable dilution of a suspension of the Escherichia coli SOL 90 strain. The products were administered in solution in a phosphate buffer pH 7.0 in a volume of 0.2 ml sub-cutaneously to batches of 10 mice, 1 to 5 hours after innoculation of the microorganism. After 4 days of observation in the course of which the mortality was noted, the 50% effective doses (DE 50) were calculated by the Muench and Reed method.

Klebsiella RO 30 [8] = test: septicemic model of the mouse, Klebsiella RO 30 (Table V); format: in vivo; conditions: RO30, sc, 96 h, mouse septicemia, sub-cutaneous, 4 days observation, read-out: DE50 (the source's name)
[9] = tested on: Proteus vulgaris GN 76/C.1/3; test: MIC on strain not producing beta-lactamase, Proteus vulgaris GN 76/C.1/3 (Table IV); format: cell-based; conditions: GN76, not producing beta-lactamases
Protocol: as §2, §3

[10] = Citrobacter RL 49, dilution method, read-out: MIC
[11] = Proteus vulgaris RL 99 bis, dilution method, read-out: MIC
[12] = Klebsiella RO 30, dilution method, read-out: MIC
[13] = Escherichia coli 255, producing beta-lactamases, read-out: MIC
[14] = Escherichia coli 255/L.7 *, not producing beta-lactamases, read-out: MIC
[15] = Proteus vulgaris GN 76/C.1, producing beta-lactamases, read-out: MIC

SMILES | MIC (Escherichia coli SOL 90 [1]) [µg/mL] | MIC (Citrobacter RL 49; [10]) [µg/mL] | MIC [2, 11] [µg/mL] | MIC (Serratia RL 72) [µg/mL] | MIC (Klebsiella RO 30 [3]; [12]) [µg/mL] | MIC (Enterobacter RO 154) [µg/mL] | MIC (Pseudomonas RL 112) [µg/mL] | MIC (Escherichia coli 255; [13]) [µg/mL] | MIC (Escherichia coli 255/L.7; [14]) [µg/mL] | MIC [4] [µg/mL] | MIC [5] [µg/mL] | MIC [6, 15] [µg/mL] | ED50 (Escherichia coli SOL 90 [7]) [mg/kg] | ED50 (Klebsiella RO 30 [8]) [mg/kg] | MIC [9] [µg/mL] | also measured
CC(C)(CN)C(=O)OCC1=C(C(=O)O)N2C(=O)C(NC(=O)/C(=N\OC(C)(C)C(=O)O)c3csc(N)n3)C2[S+]([O-])C1 (centres unmarked) [42 073] | 1 (≈ 1.66 µM) | 0.5 (≈ 0.832 µM) | 0.5 (≈ 0.832 µM) | 2 (≈ 3.33 µM) | 0.5 (≈ 0.832 µM) | 4 (≈ 6.66 µM) | 4 (≈ 6.66 µM) | 0.5 (≈ 0.832 µM) | 0.25 (≈ 0.416 µM) | 0.25 (≈ 0.416 µM) | ≤ 0.12 | 0.5 (≈ 0.832 µM) | 0.33 | – | – | –
CC(C)(O/N=C(\C(=O)NC1C(=O)N2C(C(=O)O)=C(COC(=O)CCN)C[S+]([O-])C12)c1csc(N)n1)C(=O)O (centres unmarked) [41 730] | 0.5 (≈ 0.873 µM) | 0.25 (≈ 0.437 µM) | ≤ 0.12 | 1 (≈ 1.75 µM) | 0.25 (≈ 0.437 µM) | 0.25 (≈ 0.437 µM) | 4 (≈ 6.99 µM) | 0.25 (≈ 0.437 µM) | ≤ 0.12 | 0.5 (≈ 0.873 µM) | ≤ 0.12 | 0.25 (≈ 0.437 µM) | 1.4 | 0.79 | – | –
CC(C)(O/N=C(\C(=O)NC1C(=O)N2C(C(=O)O)=C(COC(=O)CCCCCN)C[S+]([O-])C12)c1csc(N)n1)C(=O)O (centres unmarked) [41 855] | 0.25 (≈ 0.407 µM) | 1 (≈ 1.63 µM) | ≤ 0.12 | 0.5 (≈ 0.813 µM) | 0.25 (≈ 0.407 µM) | 2 (≈ 3.25 µM) | 8 (≈ 13 µM) | ≤ 0.12 | ≤ 0.12 | 0.25 (≈ 0.407 µM) | ≤ 0.12 | ≤ 0.12 | 0.16 | 0.17 | ≤ 0.12 | –
CC(C)(O/N=C(\C(=O)NC1C(=O)N2C(C(=O)O)=C(COC(=O)c3ccc(CN)cc3)C[S+]([O-])C12)c1csc(N)n1)C(=O)O (centres unmarked) [42 042] | ≤ 0.12 | ≤ 0.12 | ≤ 0.12 | 2 (≈ 3.15 µM) | ≤ 0.12 | 1 (≈ 1.58 µM) | 4 (≈ 6.3 µM) | ≤ 0.12 | ≤ 0.12 | 0.25 (≈ 0.394 µM) | ≤ 0.12 | ≤ 0.12 | 0.05 | – | ≤ 0.12 | –
CC(C)(O/N=C(\C(=O)NC1C(=O)N2C(C(=O)O)=C(COC(=O)C3CCNCC3)C[S+]([O-])C12)c1csc(N)n1)C(=O)O (stereo not drawn) [41 862, 7-[2-(2-Amino 4-thiazolyl)2-(2-carboxy 2-propyloxyimino)acetamido]3-(4-piperidinyl)carbonyl oxymethyl 3-cepheme 4-carboxylic1β-S-oxide acid trifluoroacetate syn isomer] | 0.25 | 0.25 | ≤ 0.12 | 0.5 | 0.25 | 1 | 4 | ≤ 0.12 | – | ≤ 0.25 | ≤ 0.12 | ≤ 0.12 | 0.13 | 0.1 | ≤ 0.12 | MIC (Escherichia coli 255/L.7; Escherichia coli, 255/L.7): 0.12 µg/mL
CC(C)(O/N=C(\C(=O)NC1C(=O)N2C(C(=O)O)=C(COC(=O)CCCN)C[S+]([O-])C12)c1csc(N)n1)C(=O)O (centres unmarked) [41 854] | 0.25 (≈ 0.426 µM) | 0.5 (≈ 0.852 µM) | ≤ 0.12 | 0.5 (≈ 0.852 µM) | 0.25 (≈ 0.426 µM) | 2 (≈ 3.41 µM) | 4 (≈ 6.82 µM) | ≤ 0.12 | ≤ 0.12 | 0.25 (≈ 0.426 µM) | ≤ 0.12 | 0.25 (≈ 0.426 µM) | 0.23 | 0.19 | – | –
CC(C)(O/N=C(\C(=O)NC1C(=O)N2C(C(=O)O)=C(COC(=O)[C@H]3CC[C@H](CN)CC3)C[S+]([O-])C12)c1csc(N)n1)C(=O)O (some centres unmarked) [42 117] | 0.25 (≈ 0.39 µM) | 0.25 (≈ 0.39 µM) | ≤ 0.12 | 0.5 (≈ 0.78 µM) | ≤ 0.12 | 1 (≈ 1.56 µM) | 4 (≈ 6.24 µM) | 0.125 (≈ 0.195 µM) | 0.06 (≈ 0.0936 µM) | 0.12 (≈ 0.187 µM) | ≤ 0.06 | ≤ 0.06 | 0.11 | – | ≤ 0.06 | –
NCC(=O)Nc1ccc(C(=O)OCC2=C(C(=O)O)N3C(=O)C(NC(=O)C(=NOC4(C(=O)O)CCC4)c4csc(N)n4)C3[S+]([O-])C2)cc1 (centres unmarked) [42 548] | 0.25 (≈ 0.362 µM) | – | – | 0.5 (≈ 0.725 µM) | – | 0.25 (≈ 0.362 µM) | 2 (≈ 2.9 µM) | – | ≤ 0.0312 | 0.125 (≈ 0.181 µM) | ≤ 0.0312 | – | – | – | 0.0625 (≈ 0.0906 µM) | MIC (Citrobacter RL 49; Citrobacter): ≤ 0.125 µg/mL; MIC ([2]; Proteus vulgaris): ≤ 0.125 µg/mL; MIC (Klebsiella RO 30 [3]; Klebsiella): 0.125 µg/mL (≈ 0.181 µM); MIC (Escherichia coli 255; Escherichia coli, 255): 0.625 µg/mL (≈ 0.906 µM); MIC ([6]; Proteus vulgaris): 0.0625 µg/mL (≈ 0.0906 µM)
CC(C)(ON=C(C(=O)NC1C(=O)N2C(C(=O)O)=C(CSC(=O)C3CCNCC3)C[S+]([O-])C12)c1csc(N)n1)C(=O)O (centres unmarked) [compound 41973] | – | – | – | – | – | – | – | 0.25 (≈ 0.398 µM) | 0.25 (≈ 0.398 µM) | 0.25 (≈ 0.398 µM) | ≤ 0.12 | 0.5 (≈ 0.795 µM) | 0.22 | 0.4 | – | –
CC(C)(O/N=C(\C(=O)NC1C(=O)N2C(C(=O)O)=C(COC(=O)c3ccc(NC(=O)CN)cc3)C[S+]([O-])C12)c1csc(N)n1)C(=O)O (centres unmarked) [42 467] | 0.25 (≈ 0.369 µM) | – | – | 2 (≈ 2.95 µM) | 0.25 (≈ 0.369 µM) | 0.5 (≈ 0.738 µM) | 4 (≈ 5.9 µM) | 0.0625 (≈ 0.0922 µM) | ≤ 0.0312 | 0.125 (≈ 0.184 µM) | 0.125 (≈ 0.184 µM) | – | – | – | 0.0625 (≈ 0.0922 µM) | MIC (Citrobacter RL 49; Citrobacter): ≤ 0.125 µg/mL; MIC ([2]; Proteus vulgaris): ≤ 0.125 µg/mL; MIC ([6]; Proteus vulgaris): ≤ 0.0312 µg/mL
CC(C)(ON=C(C(=O)NC1C(=O)N2C(C(=O)O)=C(CSC(=O)c3ccc(CN)cc3)C[S+]([O-])C12)c1csc(N)n1)C(=O)O (centres unmarked) [compound 42119] | 0.5 (≈ 0.768 µM) | 0.25 (≈ 0.384 µM) | ≤ 0.12 | 4 (≈ 6.15 µM) | 0.5 (≈ 0.768 µM) | 8 (≈ 12.3 µM) | 8 (≈ 12.3 µM) | 0.25 (≈ 0.384 µM) | 0.12 (≈ 0.184 µM) | 0.25 (≈ 0.384 µM) | ≤ 0.06 | 0.12 (≈ 0.184 µM) | 0.16 | – | – | –
CC(C)(ON=C(C(=O)NC1C(=O)N2C(C(=O)O)=C(COC(=O)c3ccc(NC(=O)CCN)cc3)C[S+]([O-])C12)c1csc(N)n1)C(=O)O (centres unmarked) [42 546] | 0.25 (≈ 0.361 µM) | 0.25 (≈ 0.361 µM) | – | 1 (≈ 1.45 µM) | 0.25 (≈ 0.361 µM) | 0.25 (≈ 0.361 µM) | 4 (≈ 5.78 µM) | 0.0625 (≈ 0.0904 µM) | ≤ 0.0312 | 0.25 (≈ 0.361 µM) | ≤ 0.0312 | – | – | – | 0.125 (≈ 0.181 µM) | MIC ([2]; Proteus vulgaris): ≤ 0.125 µg/mL; MIC ([6]; Proteus vulgaris): ≤ 0.0312 µg/mL
